According to EPA's ToxValDB 9.5 (doi:10.2903/j.efsa.2008.146r):

How the values were obtained:
[1] = system: Aphidius rhopalosiphi; assay: LR50; higher = less toxic; conditions: acute; duration: 48 hours; mortality
[2] = system: Typhlodromus pyri; assay: LR50; higher = less toxic; conditions: acute; duration: 14 days; mortality
[3] = system: Oncorhynchus mykiss
[4] = system: Coturnix japonica; conditions: reproduction developmental
[5] = system: Tagia sp.; conditions: acute; duration: 14 days; mortality
[6] = system: Daphnia magna; conditions: chronic/long-term; duration: 21 days; reproduction
[7] = system: Canidae; conditions: oral, Dog Other, clinical signs
[8] = system: Colinus virginianus; conditions: acute, oral, mortality
[9] = system: Rattus norvegicus
[10] = system: Apis mellifera; conditions: acute, mortality

C[N+]1(C)CCCCC1.[Cl-] [1,1-Dimethylpiperidinium chloride]
LR50 [1]: 1370 g/ha | LR50 [2]: 1530 g/ha | LC50 ([3]; acute, duration: 96 hours, mortality): > 100 µg/mL | NOEC ([3]; chronic/long-term, duration: 28 days, growth): 100 mg/L | NOEC [4]: 933 mg/kg-day | LC50 [5]: 320 mg/kg | NOEC [6]: 12.5 mg/L | NOAEL ([7]; chronic, duration: 12 months): 19.9 mg/kg-day | NOAEL ([7]; subchronic, duration: 3 months): 30.5 mg/kg-day | LD50 ([8]; diet): > 1330 mg/kg-day | LD50 [8]: > 2000 mg/kg-day | LD50 ([9]; acute, oral, mortality): 200 mg/kg-day | NOAEC ([9]; reproduction developmental): 155 mg/kg-day | NOAEL ([9]; reproduction developmental, mortality): 30 mg/kg-day | LD50 ([10]; dermal): > 100 µg/piece | LD50 ([10]; oral, unspecified): > 107 µg/piece
